Measured values published in US20060040884A1, “Antisense oligonucleotides directed to genes regulated by trapoxin-induced HDAC inhibition” (priority 2001, published 2006).
Values joined by “and” are separate entries in the source; they are usually repeats but may differ in a detail not shown here. Equal values may be shown once. Marks after values point to notes of the source that are not given here. Square brackets hold non-standard residues; d marks the D form. Peptide text beside a SMILES is read from it. ξ: configuration not given here. Aoe(9ξ) = N[C@@H](CCCCCC(=O)C1CO1)C(=O)O; dPip = O=C(O)[C@H]1CCCCN1

Test system: H1299 cells
Assay: Microarray expression profiling of TPX- vs DMSO-treated H1299 cells (Affymetrix HU6800 and Incyte UniGem V arrays)
Assay type: cell-based, human
Settings: 30 nM vs DMSO
Method: Cell Culture and Drug Treatments. […] H1299 cells at 60 to 80% confluence are treated with 30 nM TPX dissolved in dimethyl sulphoxide for a final concentration of 0.1% Me2SO in cell culture medium or 0.1% Me2SO for 0, 6, 12, and 18 h.
Incyte cDNA arrays. H1299 cells are treated with 30 nM TPX dissolved in Me2SO or Me2SO for 0, 6, 12 and 18 h. Final Me2SO concentrations were 0.1% in cell culture medium. Total RNA is extracted using TRIZOL reagent (Life Technologies, Rockville, Md.) and purified using RNAeasy reagents (Qiagen, Valencia Calif.). Poly (A)^+ RNA (mRNA) is prepared from total RNA using Oligotex columns (Qiagen, Valencia, Calif.) and the procedure is repeated twice to minimize contamination with ribosomal RNA. The mRNA concentrations are determined using RiboGreen RNA Quantitation kit (Molecular Probes, Eugene, Oreg.) and equal amounts of mRNA from each sample is used in labeling reactions that are performed by Synteni Division of Incyte Genomics, Inc. (Palo Alto, Calif.). Complementary DNAs are prepared by […] and labeled with Cy3-deoxyuridine triphosphate (Cy3) or Cy5-deoxyuridine triphosphate (Cy5) fluorescent nucleotides. cDNA samples from cells that are treated with Me2SO are labeled with Cy3 and the TPX-treated samples are labeled with Cy5. Replicates were labeled with reversed fluorescent labels to accommodate biases attributable to labeling. The Cy3 and Cy5 samples from each time point are combined and hybridized to UniGem […] arrays (Iyer, V. R., et al., (1999) Science 283, 83-87). This array contains cDNAs that represent approximately 7000 human genes.
Affymetrix oligonucleotide arrays. Total RNA and Poly (A)^+ RNA is isolated from TPX or Me2SO-treated H1299 cells essentially as it was for Incyte cDNA arrays. Total RNA is isolated from p21^waf1-10 cells that are grown in the presence or in the absence of tetracycline for 6, 12 and 48 h. 1st strand cDNA synthesis is performed using Superscript Choice System (Life Technologies) and a T7prFB-t30 primer, 5′-AAACGACGGCACA […]-t30-3′ (SEQ ID NO 1). Biotinylated complementary […] is made using the T7 Megascript system (Ambion, Austin, Tex.), substituting NTP labeling-mix containing biotinylated CTP and UTP. The labeled, purified cDNA is fragmented into <50 bp pieces at 95° C. in MgCl2 buffer to-increase the efficiency of hybridization to 20-mer oligos on the arrays. These labeled fragments are hybridized to HU6800 arrays (Affymetrix, Santa Clara, Calif.) as described previously (Lockhart, D. J., et al., (1996) Nat. Biotechnol. 14, 1675-1680; Alon, U. et al., (1999) Proc. Natl. Acad. Sci. U.S.A. 96, 6745-6750). This array represents approximately 7000 human genes. Briefly, samples are hybridized for 16 h at 45° C. with constant rotation at 60 rpm. The arrays are washed and stained using an Affymetrix fluidics station. The stain included streptavidin-phycoerythrin (10 μg/ml; Molecular Probes, Eugene, Oreg.) and biotinylated goat anti-streptavidin (3 μg/ml; Vector Laboratories, Burlingame, Calif.).
Imaging and Data Analysis. Affymetrix arrays are scanned with a HP argon-ion laser confocal microscope, with a 488 nm […] and detection at 570 nm. Affymetrix fold changes are calculated using GeneChip 3.3 software (Affymetrix). Incyte Pharmaceutical Inc. uses a laser confocal microscope to determine the fluorescence intensities from Incyte cDNA arrays. The fluorescent images (Cy3 and Cy5) from the Incyte cDNA arrays are normalized to total fluorescence from each channel for all genes for labeling efficiency differences and considered the normalized data is used for calculation of the gene expression ratios.

`O=C(CCCCC[C@@H]1NC(=O)[C@H]2CCCCN2C(=O)[C@H](Cc2ccccc2)NC(=O)[C@H](Cc2ccccc2)NC1=O)C1CO1` (stereo partly drawn) [TPX, Trapoxin A] (cyclo(FF[dPip][Aoe(9ξ)])) was tested, and the “Fold change, AB011146 KIAA0574, similar to an RNA binding protein” value (6 h) was “NC (<2 fold change in expression level (NC))”, the “Fold change, AF012086 RAN-binding protein 2-like” value (6 h) was “NC (<2 fold change in expression level (NC))” and the “Fold change, AF052578 RAN [RNA processing]” value (6 h) was “NC (<2 fold change in expression level (NC))”. For the same compound, the “Fold change, AF052578 RAN [Small GTP-ases]” value (6 h) was “NC (<2 fold change in expression level (NC))”, the “Fold change, AF109161 p35srj [Stress]” value (6 h) was “NC (<2 fold change in expression level (NC))” and the “Fold change, AF109161 p35srj [Transformation and TKRs]” value (6 h) was “NC (<2 fold change in expression level (NC))”. For the same compound, the “Fold change, AL047358 Insulin-induced gene 1” value (6 h) was 2.2 fold and 2.8 fold, the “Fold change, AL047358 Spermidine/spermine N1-acetyltransferase” value (6 h) was “NC (<2 fold change in expression level (NC))” and the “Fold change, AL720570 Hepatoma-derived growth factor” value (6 h) was “NC (<2 fold change in expression level (NC))”. For the same compound, the “Fold change, D00596 Thymidylate synthetase” value (6 h) was “NC (<2 fold change in expression level (NC))”, the “Fold change, D16105 Leukocyte receptor tyrosine kinase” value (6 h) was “NC (<2 fold change in expression level (NC))” and the “Fold change, D50920 KIAA0130, thyroid receptor interacting protein” value (6 h) was “NC (<2 fold change in expression level (NC))”. For the same compound, the “Fold change, D85429 Hsp 40” value (6 h) was 4.0^8 fold and 3.9^8 fold, the “Fold change, J03909 γ-IFN-inducible, IP-30” value (6 h) was 3.9^5 fold and 3.9^2 fold and the “Fold change, L03840 Fibroblast growth factor receptor” value (6 h) was 2.4* fold and 2.7* fold. The “Fold change, L16991 Thymidylate kinase” value (6 h) was “NC (<2 fold change in expression level (NC))”, the “Fold change, L20010 Host cell factor” value (6 h) was “NC (<2 fold change in expression level (NC))” and the “Fold change, L32976 Mixed lineage kinase-3” value (6 h) was “NC (<2 fold change in expression level (NC))”. The “Fold change, M12174 RhoB” value (6 h) was 6.2^5 fold and 9.0^8 fold, the “Fold change, M55153 Transglutaminase 2” value (6 h) was “NC (<2 fold change in expression level (NC))” and the “Fold change, M58286 TNF Receptor” value (6 h) was “NC (<2 fold change in expression level (NC))”. For the same compound, the “Fold change, M59828 Hsp 70” value (6 h) was 3.5 fold and 4.1 fold, the “Fold change, M76125 Tyrosine kinase receptor (TKR) axl” value (6 h) was “NC (<2 fold change in expression level (NC))” and the “Fold change, M80244 Human E16” value (6 h) was “NC (<2 fold change in expression level (NC))”. For the same compound, the “Fold change, M80899 AHNAK nucleoprotein/desmoykin” value (6 h) was “NC (<2 fold change in expression level (NC))”, the “Fold change, M86406 Actinin” value (6 h) was “NC (<2 fold change in expression level (NC))” and the “Fold change, N33982 c-Yes-associated protein” value (6 h) was “NC (<2 fold change in expression level (NC))”. For the same compound, the “Fold change, NM006603 Stromal antigen 2” value (6 h) was “NC (<2 fold change in expression level (NC))”, the “Fold change, U03057 Actin-bundling protein” value (6 h) was “NC (<2 fold change in expression level (NC))” and the “Fold change, U09578 MAKAP kinase (3 pk)” value (6 h) was “NC (<2 fold change in expression level (NC))”. For the same compound, the “Fold change, U09579 p21waf1 (1st line)” value (6 h) was 6.1* fold and 6.6* fold, the “Fold change, U09579 p21waf1 (2nd line)” value (6 h) was 2.3 fold and 3.3 fold and the “Fold change, U09937 Upa receptor (UpaR) (1st line)” value (6 h) was “NC (<2 fold change in expression level (NC))”. For the same compound, the “Fold change, U14750 Connective tissue growth factor” value (6 h) was 3.1 fold and 3.6 fold, the “Fold change, U15782 Cleavage stimulation factor 3” value (6 h) was “NC (<2 fold change in expression level (NC))” and the “Fold change, U25804 Caspase-4” value (6 h) was “NC (<2 fold change in expression level (NC))”. For the same compound, the “Fold change, U28749 HMGI-C (2nd line)” value (6 h) was “NC (<2 fold change in expression level (NC))”, the “Fold change, U28749 High mobility group phosphoprotein I-C (HMGI-C) (1st line)” value (6 h) was “NC (<2 fold change in expression level (NC))” and the “Fold change, U32519 GAP SH3 binding protein” value (6 h) was 5.7^8 fold and 5.8^8 fold. The “Fold change, U35113 Metastasis-associated 1, MTA-1 [Metastasis and invasion]” value (6 h) was “NC (<2 fold change in expression level (NC))”, the “Fold change, U35113 Metastasis-associated protein 1 (MTA-1) [Chromatin remodeling]” value (6 h) was “NC (<2 fold change in expression level (NC))” and the “Fold change, U48795 Cathelicidin antimicrobial peptide” value (6 h) was “NC (<2 fold change in expression level (NC))”. For the same compound, the “Fold change, U56833 VBP-1” value (6 h) was “NC (<2 fold change in expression level (NC))”, the “Fold change, U77413 O-linked-N-acetylglucosamine transferase” value (6 h) was “NC (<2 fold change in expression level (NC))” and the “Fold change, U84214 Defender against cell death 1” value (6 h) was “NC (<2 fold change in expression level (NC))”. For the same compound, the “Fold change, X03473 Histone H1 (0) [Chromatin remodeling]” value (6 h) was 6.8^4 fold and 10.8^8 fold, the “Fold change, X03473 Histone H1 (0) [Differentiation]” value (6 h) was 6.8^4 fold and 10.8^8 fold and the “Fold change, X04429 Plasminogen activator inhibitor 1” value (6 h) was “NC (<2 fold change in expression level (NC))”. The “Fold change, X16396 NAD-dependent methylene teterahydrofolate dehydrogenase-methylenyltetrahydrofolate cyclohydrolase” value (6 h) was “NC (<2 fold change in expression level (NC))”, the “Fold change, X16665 Homeobox B2 (Hoxb2)” value (6 h) was “NC (<2 fold change in expression level (NC))” and the “Fold change, X37546 Inhibitor of apoptisis homolog B” value (6 h) was “NC (<2 fold change in expression level (NC))”. For the same compound, the “Fold change, X53586 Integrin α-6” value (6 h) was “NC (<2 fold change in expression level (NC))”, the “Fold change, X55740 5′-nucleotidase” value (6 h) was “NC (<2 fold change in expression level (NC))” and the “Fold change, X59798 Cyclin D1” value (6 h) was “NC (<2 fold change in expression level (NC))”. For the same compound, the “Fold change, X66029 TKR axl” value (6 h) was “NC (<2 fold change in expression level (NC))”, the “Fold change, X71874 MECL-1” value (6 h) was “NC (<2 fold change in expression level (NC))” and the “Fold change, X78687 G9 sialidase” value (6 h) was 3.0^8 fold and 3.4^8 fold. The “Fold change, X89713 Death-associated protein-5” value (6 h) was “NC (<2 fold change in expression level (NC))”, the “Fold change, A1581499 Apoptosis inhibitor 2” value (12 h) was “NC (<2 fold change in expression level (NC))” and the “Fold change, AB011146 KIAA0574, similar to an RNA binding protein” value (12 h) was 2.7 fold. The “Fold change, AF012086 RAN-binding protein 2-like” value (12 h) was 9.1 fold and 8.3 fold, the “Fold change, AF052578 RAN [RNA processing]” value (12 h) was “NC (<2 fold change in expression level (NC))” and the “Fold change, AF052578 RAN [Small GTP-ases]” value (12 h) was 2.9 fold and 2.0 fold. For the same compound, the “Fold change, AF109161 p35srj [Stress]” value (12 h) was 3.5 fold and 2.4 fold, the “Fold change, AF109161 p35srj [Transformation and TKRs]” value (12 h) was 3.5 fold and 2.4 fold and the “Fold change, AL047358 Insulin-induced gene 1” value (12 h) was 7.9 fold and 6.4 fold. For the same compound, the “Fold change, AL047358 Spermidine/spermine N1-acetyltransferase” value (12 h) was 3.8 fold and 2.3 fold, the “Fold change, AL720570 Hepatoma-derived growth factor” value (12 h) was “NC (<2 fold change in expression level (NC))” and the “Fold change, AW072424 5′-nucleotidase” value (12 h) was −3.7 fold. For the same compound, the “Fold change, D00596 Thymidylate synthetase” value (12 h) was “NC (<2 fold change in expression level (NC))”, the “Fold change, D16105 Leukocyte receptor tyrosine kinase” value (12 h) was “NC (<2 fold change in expression level (NC))” and the “Fold change, D50920 KIAA0130, thyroid receptor interacting protein” value (12 h) was “NC (<2 fold change in expression level (NC))”.
